Results on one compound are retold here after patent US20130217644A1, “Pharmaceutical Compositions of 2'-C-Methyl-Guanosine, 5'-[2[(3-Hydroxy-2,2-Dimethyl-1-Oxopropyl)Thio]Ethyl N-(Phenylmethyl)Phosphoramidate]” (IDENIX PHARMACEUTICALS, INC., priority 2012, published 2013).

A short description of data set [1]: Excipient compatibility: ethylene sulfide in 1:1 blends of compound 1 and excipient. Type of data set: physicochemical. The settings on record: 1:1 weight ratio of compound 1 and excipient, glass vials, gentle rotation 30 minutes, ambient conditions. The procedure: Excipient compatibility of compound 1 with various excipients was determined. Samples of a 1:1 weight ratio of compound 1 and each excipient were blended in glass vials. The vials were subjected to gentle rotation to 30 minutes at ambient conditions. Samples were assayed for ethylene sulfide. Table 3 below presented the results for a selected group of the excipients evaluated: […]

Data set [2] in a line: Open-label randomized cross-over single-dose pharmacokinetic study, tablet vs liquid filled capsule. Type of data set: in vivo, human. The note with it: 50 mg single doses (tablet and capsule), healthy male subjects. The method, then:
A lot of tablets manufactured under cGMP conditions utilizing the composition of Example 3 (with appropriate adjustment of the weight % of PROSOLV SMCC 90 to account for the potency of Compound 1) were utilized in a pharmacokinetic study. The human clinical study was study performed in conformance with the Declaration of Helsinki and approved by a local Ethics Committee. An open-label randomized cross-over single-dose pharmacokinetic effect study was conducted in 12 healthy male subjects (ages 19-65) to compare the relative exposure of the tablet composition (50 mg compound 1) as compared to the liquid filled capsule composition (50 mg of compound 1) in the fasted state. In addition, an un-randomized third period followed the first two periods in which all 12 subjects were dosed with the tablet composition (50 mg compound 1) in the fed state, and 8 of the 12 subjects returned for a fourth period in which the 8 subjects were dosed with the liquid filled capsule composition (50 mg compound 1) in the fed state. Plasma samples for pharmacokinetic (PK) analysis were taken over a period of 120 h after dosing during each treatment period. Dosing days were at least 6 days apart (Period 1, days 1 to 6; Period 2, days 7 to 13, Period 3, days 14 to 20; and Period 4 followed the initial three periods). […] The pharmacokinetic samples were assayed for 2′-C-methyl-guanosine as well as compound 1.

For another data set, the system named is HCV replication. The settings on record: in-vitro assays, as described in U.S. Pat. No. 7,951,789; cited from earlier work.

Turning to `CC(C)(CO)C(=O)SCCOP(=O)(NCc1ccccc1)OC[C@H]1O[C@@H](n2cnc3c(=O)[nH]c(N)nc32)C(C)(O)C1O` (stereo partly drawn) [Compound 1, 2′-C-methyl-guanosine, 5′-[2-[(3-hydroxy-2,2-dimethyl-1-oxopropyl)thio]ethyl N-(phenylmethyl)phosphoramidate]], in data set [1], the “ppm Ethylene Sulfide Mean of 4 samples” value is less than 9 ppm. Besides, the serious adverse events entry in data set [2] is recorded as “No serious adverse events were reported”. Further, the “inhibition of HCV replication (in words)” value with HCV replication is given as “ability to inhibit HCV replication”.
